Legend:
[1] = Demetallation assay in 1M HCl; format: physicochemical; conditions: 2.5 mM, 37° C.
Method: Since transmetallation was not observed in serum supplemented with ZnCl2, the stability of the various Gd complexes were further evaluated by monitoring demetallation in a highly acidic, non-physiologic solution (1M HCl). Even under these harsh conditions, Gd remained complexed with Compound 6 for at least 24 hours (FIG. 3B). […] Since a measurement of the T1 relaxation time could not be acquired at t=0 for this assay, the relaxation ratio could not be calculated. Instead, demetallation was monitored strictly by changes in the T1 relaxation time. In instances of demetallation, the T1 relaxation time moved towards that of free Gd.
Demetallation Assay A 300 μL solution of 2.5 mM Gd-compound was incubated at 37° C. in 1M HCl and the longitudinal relaxation times were acquired at appropriate time points. The relaxation time was then plotted against time.

[2] = Relaxivity measurements (longitudinal relaxivity r1); format: physicochemical; conditions: Bruker mq60 MR relaxometer, 1.41 T (60 MHz), saline pH 7.4
Method: Compound2 was prepared by bromination of methyl acrylate using bromine in chloroform at room temperature, while compound 3 was prepared by slow addition of diethylamine into compound 2 in ether at 0° C. The methyl and ethyl protecting groups were efficiently removed with a methanol:NaOH (0.5 M) solvent cocktail (40:60) for 48 h. The solution was neutralized with a 2 M HCl solution and dried. The residue was redissolved in pure methanol, and the precipitate that formed was filtered and the solvent dried in vacuuo to yield compound 6. […] In comparison, the longitudinal relaxivity of Magnevist® was measured to be 3.9 mM^−1s^−1 (FIG. 2B).
Longitudinal relaxation times (T1) were measured in saline at pH 7.4 using a Bruker mq60 tabletop MR relaxometer operating at 1.41 T. The longitudinal relaxivity (r1) of the complex was calculated by plotting the reciprocal of the T1 relaxation time versus the gadolinium concentration.

[3] = Transmetallation assay with ZnCl2 in fetal bovine serum; format: physicochemical; conditions: 2.5 mM complex, 2.5 mM ZnCl2, fetal bovine serum, pH 7.4, 37° C., over 72 hours
Method: To directly compare the stability of Complex A to Gd-DTPA (Magnevist®) and Gd-DOTA (also known as gadoteric acid), a transmetallation assay using equimolar concentrations of ZnCl2 was performed in fetal bovine serum. Transmetallation was monitored as a function of time by calculating the relaxation ratio, R1(t)/R1(0), where R1(t) is the longitudinal Relaxivity at time t and R1(0) is the longitudinal Relaxivity in the absence of ZnCl2 (i.e. time 0).
Transmetallation of Gd^3+ ion by Zinc^2+ ion was performed in fetal bovine serum. The solution contained 4 mL of 2.5 mM Gd-complex and 2.5 mM ZnCl2 at pH 7.4. The mixture was stirred at 37° C. throughout the experiment while 300 μL aliquot was taken up at the appropriate time for measurement of the longitudinal relaxation time. The water proton relaxation times were measured using a Bruker mq60 tabletop MR relaxometer operating at 1.41T. Ratio of reverse relaxation time at each time point (R1(t)) and relaxation time at time zero (R1(0)) was plotted against time.

[4] = tested on: GAG-rich cartilage (articular cartilage microparticles from juvenile bovine femurs); test: Electrostatic interaction with cartilage microparticles (T1 of supernatant); format: binding; conditions: normalized to average T1 of respective control
Method: To assess whether Gd-DOTA-Am4 interacts electrostatically with GAG-rich cartilage, articular cartilage from juvenile bovine femurs was ground into microparticles. These microparticles were then mixed and incubated with Gd-DOTA, Gd-DTPA, or Gd-DOTA-Am4. The microparticles were then pelleted and the T1 relaxation time of the supernatant was measured. Measurements were compared to analogous control Gd complexes that were not incubated with cartilage microparticles (FIG. 5). All samples were normalized to the average T1 relaxation time of their respective control.

[5] = tested on: adult bovine menisci explants with defect; test: Contrast-enhanced T1-weighted MR imaging of meniscus explants with defect; conditions: 2 mM, pH 7.4, ~30 min bath; for qualitative contrast / signal intensity within soft tissue defect: T1-weighted images, 4.7 T
Method: To evaluate the efficacy of Complex A in highlighting soft tissue tears in comparison to Gd-DTPA, explants (8 mm in diameter) were obtained from adult bovine menisci. Well-defined defects were then introduced by using a punch to create a 4 mm internal core, which was left in place. Tissue explant blocks (n=9; 3 per group) were placed in a 48-well microplate and bathed in 2 mM Gd-DTPA, Complex A, or Saline (pH 7.4) for ˜30 min. The pH and concentration of Gd^+3 was kept constant throughout the experiment. T1-weighted images were then acquired in the axial plane (FIGS. 6A and 7). […] In the saline samples, the defects were extremely difficult to identify. To acquire a more quantitative comparison between the three groups, regions of interest (ROI) were drawn around the lateral defects and, following background subtraction (FIGS. 6B-D), the total signal intensity (area under curve) within the ROI was quantified and normalized to the length of the tear (FIG. 6E). The Wilcoxon signed-rank test was then used to compare contrast enhancement for the various contrast agents.
Adult bovine stifle joints were purchased from a commercial vendor (Animal Technologies, Tyler, Tex.), dissected in a sterile field, and the menisci removed. Biopsy punches (Miltex, York, Pa.) were used to produce 8 mm diameter full thickness samples in the axial plane. Well-defined defects were then introduced by using a 4 mm punch to create an internal core, which was left in place. […]
A region of interest (ROI) was determined for each MR image slice (n=6 per contrast agent, i.e. 2 slices per sample). […] The ROI height was determined for each slice individually, such that it could span the sample from top to bottom and exclude media and unrelated bright areas within the cartilage (e.g., cavities near the liquid-cartilage interface). […]
ROIs were partitioned into one-pixel tall lines spanning the entire width. […] All of the integrations in an ROI were then averaged to quantify that ROI's average signal intensity. […]

[6] = tested on: bovine meniscal fibrochondrocytes (MFCs); test: Cell-based safety assay on meniscal fibrochondrocyte monolayers; conditions: over 24 hours, basal media, compared with Saline
Method: (§1) The safety profile of Gd-DOTA-Am4 was assessed via both cell- and tissue-based assays. […] Similarly, after intra-articular injection of Saline, Gd-DTPA, or Gd-DOTA-Am4 into the joint space of an intact bovine femorotibial explant, the area fractions of live and dead cells in the cartilage and meniscus were equivalent after 3 hours (p>0.05) (FIG. 9).

[7] = tested on: cartilage and meniscus of an intact bovine femorotibial explant; test: Tissue-based safety assay, intra-articular injection into femorotibial explant; conditions: after 3 hours, compared with Saline, p>0.05
Method: as §1

time Gd remained complexed (demetallation) ([1]; monitored by T1 relaxation time) | SMILES | longitudinal relaxivity [2] [mM⁻¹ s⁻¹] | transmetallation (relaxation ratio R1(t)/R1(0)) [3] | demetallation (T1 relaxation time) [1] | T1 relaxation time of supernatant after incubation with cartilage microparticles vs control without microparticles [4] | qualitative contrast / signal intensity within soft tissue defect [5] | qualitative contrast / signal intensity within soft tissue defect ([5]; listed as Magnevist®) | total signal intensity within ROI normalized to length of tear (contrast enhancement) ([5]; statistical comparison between groups) | cell morphology, viability, and proliferation [6] | area fractions of live and dead cells in the cartilage and meniscus [7]
at least 24 hours | NCC(C(=O)O)N1CCN(C(CN)C(=O)O)CCN(C(CN)C(=O)O)CCN(C(CN)C(=O)O)CC1 (stereo not drawn) [Compound 6, 1,4,7,10-tetraazacyclododecane-N,N′,N″,N′″-(α-(aminomethyl))-tetraacetic acid] |  |  |  |  |  |  |  |  | 
 | O=C([O-])CN(CCN(CC(=O)[O-])CC(=O)O)CCN(CC(=O)[O-])CC(=O)O.[Gd+3] [Gd-DTPA, Diethylenetriaminepentaacetic acid (DTPA) gadolinium complex] | 3.9 | rapidly increased | rapid demetallation | no change in the relaxation time | much less contrast was observed within the defect at greater depths | less contrast was observed within the defect at greater depths | statistically significant improvement in contrast compared to saline | qualitatively similar between groups | equivalent
 | O=C([O-])CN1CCN(CC(=O)[O-])CCN(CC(=O)O)CCN(CC(=O)[O-])CC1.[Gd+3] [Gd-DOTA, 1,4,7,10-tetraazacyclododecane-1,4,7,10-tetraacetic acid (DOTA) gadolinium complex] |  | No transmetallation was detected | rapid demetallation | no change in the relaxation time |  |  |  |  | 
